Here are results for 51 compounds from the Kinase Knowledgebase extract (Sharma et al. 2016).

Sequence of PIK3CA (human) (P42336 whole entry, looked up): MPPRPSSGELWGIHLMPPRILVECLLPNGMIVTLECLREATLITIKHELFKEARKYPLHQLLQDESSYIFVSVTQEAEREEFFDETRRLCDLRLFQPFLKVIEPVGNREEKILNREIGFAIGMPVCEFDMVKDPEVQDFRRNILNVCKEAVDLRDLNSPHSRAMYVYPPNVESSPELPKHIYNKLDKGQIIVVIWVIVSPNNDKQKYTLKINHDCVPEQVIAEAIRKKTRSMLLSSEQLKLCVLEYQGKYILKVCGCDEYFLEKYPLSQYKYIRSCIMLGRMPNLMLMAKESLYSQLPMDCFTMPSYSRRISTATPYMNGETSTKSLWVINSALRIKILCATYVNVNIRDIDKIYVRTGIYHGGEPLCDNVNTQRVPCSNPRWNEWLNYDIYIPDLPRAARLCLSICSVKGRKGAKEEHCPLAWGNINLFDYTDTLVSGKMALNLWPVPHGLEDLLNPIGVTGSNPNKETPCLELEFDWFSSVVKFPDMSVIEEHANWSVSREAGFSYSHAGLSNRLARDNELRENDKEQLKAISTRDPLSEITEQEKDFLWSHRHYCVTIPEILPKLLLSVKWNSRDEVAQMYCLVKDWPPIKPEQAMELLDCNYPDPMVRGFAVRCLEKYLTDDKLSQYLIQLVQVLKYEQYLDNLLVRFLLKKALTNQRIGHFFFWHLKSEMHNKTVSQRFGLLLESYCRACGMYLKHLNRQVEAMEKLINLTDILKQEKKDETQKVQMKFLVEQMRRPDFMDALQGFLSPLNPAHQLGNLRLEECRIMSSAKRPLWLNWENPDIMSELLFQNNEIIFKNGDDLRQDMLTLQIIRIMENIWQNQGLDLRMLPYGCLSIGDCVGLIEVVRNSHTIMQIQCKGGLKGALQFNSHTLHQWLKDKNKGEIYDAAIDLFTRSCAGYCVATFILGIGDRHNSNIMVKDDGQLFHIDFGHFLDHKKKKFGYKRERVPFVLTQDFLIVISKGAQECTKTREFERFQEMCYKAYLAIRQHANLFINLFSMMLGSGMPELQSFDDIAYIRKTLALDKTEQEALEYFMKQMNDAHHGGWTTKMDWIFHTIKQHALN

The assay addresses PIK3CA (human) (UniProt P42336). As to the kind of experiment: Cell-Based Assay. The following applies: bt20.
`N[C@H]1CC[C@H](n2c(=O)[nH]c3cnc4ccc(-c5cnc6ccccc6c5)nc4c32)CC1` came in with an IC50 of 402 nM. This counts as sub-micromolar. For the compound `COc1ncc(-c2ccc3ncc4c(c3n2)n(C2CCOCC2)c(=O)n4C)cn1`, the IC50 came out at 98.9 nM.

`Cc1ccc(-c2ccc3ncc4c(c3n2)n(C2CCN(c3ncccn3)CC2)c(=O)n4C)cn1` yielded an IC50 of 41.4 nM. As to `Cn1c(=O)n(C2CCOCC2)c2c3nc(-c4cnn(CCO)c4)ccc3ncc21`, the IC50 was 579 nM. This IC50 is about 14-fold higher than that of the compound before. The figure for `CNC(=O)N1CCC(n2c(=O)n(C)c3cnc4ccc(-c5cnc6ccccc6c5)nc4c32)CC1` is 7.34 nM. `Cn1c(=O)n(C2CCN(C(=O)C(C)(C)O)CC2)c2c3nc(-c4cnc5[nH]ncc5c4)ccc3ncc21` showed an IC50 of 9.91 nM. This IC50 and that of the compound before are within 1.5-fold of each other.

`CN(C)c1ccc(-c2ccc3ncc4c(c3n2)n([C@H]2CC[C@H](OCCO)CC2)c(=O)n4C)cn1` gave an IC50 of 11.6 nM. The value for `Cn1c(=O)n(C2CCN(C(=O)CO)CC2)c2c3nc(-c4cccc5[nH]ncc45)ccc3ncc21` was 60.4 nM; that for `Cn1c(=O)n(C2CCOCC2)c2c3nc(-c4cnc(N)nc4)ccc3ncc21` was 6.94 nM.

Regarding `Cc1ccc(-c2ccc3ncc4c(c3n2)n(C2CCN(C)CC2)c(=O)n4C)cn1`, the 50% inhibitory concentration (IC50) came to 22.8 nM. The figure for `CN(C)c1ccc(-c2ccc3ncc4c(c3n2)n(C2CCN(C(=O)C(C)(C)O)CC2)c(=O)n4C)cn1` is 6.69 nM. The figure for `Cc1ccc(-c2ccc3ncc4c(c3n2)n(C2CCN(C(=O)CN)CC2)c(=O)n4C)cn1` is 68.9 nM; for `Cc1ccc(-c2ccc3ncc4c(c3n2)n(C2CCOCC2)c(=O)n4C)cn1` it is 27.3 nM. `COc1ccc(-c2ccc3ncc4c(c3n2)n(C2CCN(C(=O)[C@H](C)O)CC2)c(=O)n4C)cc1` came in with a half-maximal inhibitory concentration (IC50) of 14 nM. The value for `CC(=O)N1CCC(n2c(=O)n(C)c3cnc4ccc(-c5cccc6ncccc56)nc4c32)CC1` was 194 nM.

In turn, `Cc1ccc(-c2ccc3ncc4c(c3n2)n(C2CCN(CC(N)=O)CC2)c(=O)n4C)cn1` displayed an IC50 of 18.7 nM. In turn, `CN(C)c1ccc(-c2ccc3ncc4c(c3n2)n(-c2ccc(C(C)(C)C#N)cc2)c(=O)n4C)cn1` registered a half-inhibitory concentration (IC50) of 30.9 nM. The value for `CNC(=O)N1CCC(n2c(=O)n(C)c3cnc4ccc(-c5cnc(OC)nc5)nc4c32)CC1` was 68.1 nM; that for `COc1cccc(-c2ccc3ncc4c(c3n2)n(C2CCN(C(C)=O)CC2)c(=O)n4C)c1` was 57.7 nM. With `C[C@H](O)C(=O)N1CCC(n2c(=O)n(C)c3cnc4ccc(-c5ccnc6[nH]ncc56)nc4c32)CC1`, the IC50 was 218 nM. The value for `C[C@@H](O)C(=O)N1CCC(n2c(=O)n(C)c3cnc4ccc(-c5cnc6[nH]ncc6c5)nc4c32)CC1` was 29.4 nM; that for `CCC(=O)N1CCC(n2c(=O)n(C)c3cnc4ccc(-c5cnc6ccccc6c5)nc4c32)CC1` was 7.86 nM; that for `CC(C)OC(=O)N1CCC(n2c(=O)n(C)c3cnc4ccc(-c5cnc6ccccc6c5)nc4c32)CC1` was 19.6 nM. `CNC(=O)N1CCC(n2c(=O)n(C)c3cnc4ccc(-c5ccc(C)nc5)nc4c32)CC1` gave an IC50 of 59.4 nM. As to `Cc1ccc(-c2ccc3ncc4c(c3n2)n(-c2ccc(C(C)(C)C#N)cc2)c(=O)n4C)cn1`, the IC50 was found to be 24.4 nM. This IC50 is about 2.4-fold lower than that of the compound before. `COc1ncc(-c2ccc3ncc4c(c3n2)n(C2CCNCC2)c(=O)n4C)cn1` gave an IC50 of 333 nM. The figure for `Cn1c(=O)n(C2CCN(C(=O)OCc3ccccc3)CC2)c2c3nc(-c4cnc5ccccc5c4)ccc3ncc21` is 13.4 nM. `COc1ccc(-c2ccc3ncc4c(c3n2)n(C2CCN(C(C)=O)CC2)c(=O)n4C)cc1`: the 50% inhibitory concentration (IC50) was 11.3 nM. The value for `O=c1[nH]c2cnc3ccc(-c4cnc5ccccc5c4)nc3c2n1C1CCNCC1` was 353 nM. With `CC(=O)N1CCC(n2c(=O)n(C)c3cnc4ccc(-c5cnn(C)c5)nc4c32)CC1`, the IC50 came out at 133 nM.

Consider `Cc1ccc(-c2ccc3ncc4c(c3n2)n([C@H]2CC[C@H](O)CC2)c(=O)n4C)cn1`, for which the IC50 turned out to be 18.5 nM. The figure for `Cn1c(=O)n(C2CCOCC2)c2c3nc(-c4ccn[nH]4)ccc3ncc21` is 309 nM; for `CN(C)c1ccc(-c2ccc3ncc4c(c3n2)n(C2CCN(C(=O)C(C)(C)C)CC2)c(=O)n4C)cn1` it is 21.4 nM.

In turn, `CC(C)C(=O)N1CCC(n2c(=O)n(C)c3cnc4ccc(-c5cnc6ccccc6c5)nc4c32)CC1` gave an IC50 of 29.4 nM. The figure for `Cn1cc(-c2ccc3ncc4c(c3n2)n(C2CCN(CC(F)(F)F)CC2)c(=O)n4C)cn1` is 195 nM. The value for `C[C@H](CO)n1c(=O)n(C)c2cnc3ccc(-c4cccc5[nH]ccc45)nc3c21` was 55.3 nM; that for `Cn1c(=O)n([C@H]2CC[C@H](O)CC2)c2c3nc(-c4cn[nH]c4)ccc3ncc21` was 19.7 nM; that for `COc1ccc(-c2ccc3ncc4c(c3n2)n([C@H](C)CO)c(=O)n4C)cn1` was 237 nM. For `COc1ncc(-c2ccc3ncc4c(c3n2)n(-c2ccc(C(C)(C)C#N)cc2)c(=O)n4C)cn1`, the IC50 worked out at 27.2 nM. `COc1ccc(-c2ccc3ncc4c(c3n2)n(C2CCN(C(C)C)CC2)c(=O)n4C)cn1` registered an IC50 of 55.1 nM. On to `CN1CCC(n2c(=O)n(C)c3cnc4ccc(-c5cnc6ccccc6c5)nc4c32)CC1`, for which the IC50 amounted to 11.7 nM.

As to `Cn1c(=O)n([C@H]2CC[C@H](N)CC2)c2c3nc(-c4cnc5ccccc5c4)ccc3ncc21`, the half-inhibitory concentration (IC50) was found to be 46.4 nM. Against the preceding compound, the IC50 is about 4-fold higher. Compound `Cn1c(=O)n([C@H]2CC[C@H](OCCO)CC2)c2c3nc(-c4cnc5ccccc5c4)ccc3ncc21` showed an IC50 of 10.7 nM. Compound `Cn1cc(-c2ccc3ncc4c(c3n2)n(C2CCN(C(=O)C(C)(C)O)CC2)c(=O)n4C)cn1` showed an IC50 of 30.4 nM. The figure for `CNC(=O)N1CCC(n2c(=O)n(C)c3cnc4ccc(-c5ccc(N(C)C)nc5)nc4c32)CC1` is 24.3 nM. The figure for `Cn1c(=O)n(C2CCN(CC(F)(F)F)CC2)c2c3nc(-c4cnc5ccccc5c4)ccc3ncc21` is 14.8 nM; for `Cn1c(=O)n([C@H]2CC[C@H](O)CC2)c2c3nc(-c4cnc5ccccc5c4)ccc3ncc21` it is 5.21 nM; for `COc1ccc(-c2ccc3ncc4c(c3n2)n(CCN2CCNCC2)c(=O)n4C)cn1` it is 344 nM. The figure for `COc1cccc(-c2ccc3ncc4c(c3n2)n(C2CCN(C(=O)[C@H](C)O)CC2)c(=O)n4C)c1` is 34.4 nM. `COc1ccc(-c2ccc3ncc4c(c3n2)n(C2CCOCC2)c(=O)n4C)cn1` yielded an IC50 of 18.5 nM. The value for `COc1ncc(-c2ccc3ncc4c(c3n2)n(C2CCN(CC(N)=O)CC2)c(=O)n4C)cn1` was 90.3 nM.
